Laboratory results as given in ChEMBL document CHEMBL1126858, “Synthesis of (R,S)-trans-8-hydroxy-2-[N-n-propyl-N-(3'-iodo-2'-propenyl)amino]tetral in (trans-8-OH-PIPAT): a new 5-HT1A receptor ligand” (J Med Chem, 1993).

Tests used:
[1] = molecular target: T1, 5-hydroxytryptamine receptor 1A (Rattus norvegicus, UniProt P19327); test: Binding affinity towards 5-hydroxytryptamine 1A receptor by the displacement of [125I]trans-8-OH-PIPAT in membrane homogenates of hippocampal tissue of rat brain; assay type: tissue-based, Hippocampus
T1 sequence (P19327 whole entry): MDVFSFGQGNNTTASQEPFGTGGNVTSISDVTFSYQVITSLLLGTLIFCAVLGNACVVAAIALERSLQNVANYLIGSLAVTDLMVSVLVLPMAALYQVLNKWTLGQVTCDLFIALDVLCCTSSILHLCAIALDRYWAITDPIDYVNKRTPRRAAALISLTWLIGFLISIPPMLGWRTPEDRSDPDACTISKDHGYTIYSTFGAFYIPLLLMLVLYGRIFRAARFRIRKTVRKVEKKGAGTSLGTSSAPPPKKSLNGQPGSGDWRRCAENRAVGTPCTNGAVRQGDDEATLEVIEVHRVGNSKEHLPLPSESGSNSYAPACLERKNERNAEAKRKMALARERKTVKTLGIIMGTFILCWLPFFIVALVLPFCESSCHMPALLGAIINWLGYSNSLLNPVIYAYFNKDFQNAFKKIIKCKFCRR

[2] = Hill coefficient of the compound; assay type: ADME
D(2) dopamine receptor = D(2) dopamine receptor (Homo sapiens, UniProt P14416); test: Inhibitory activity against [125I]- NCQ298 binding to dopamine receptor D2 in Sf 9 cells; assay type: cell-based
D(2) dopamine receptor, sequence (P14416 whole entry): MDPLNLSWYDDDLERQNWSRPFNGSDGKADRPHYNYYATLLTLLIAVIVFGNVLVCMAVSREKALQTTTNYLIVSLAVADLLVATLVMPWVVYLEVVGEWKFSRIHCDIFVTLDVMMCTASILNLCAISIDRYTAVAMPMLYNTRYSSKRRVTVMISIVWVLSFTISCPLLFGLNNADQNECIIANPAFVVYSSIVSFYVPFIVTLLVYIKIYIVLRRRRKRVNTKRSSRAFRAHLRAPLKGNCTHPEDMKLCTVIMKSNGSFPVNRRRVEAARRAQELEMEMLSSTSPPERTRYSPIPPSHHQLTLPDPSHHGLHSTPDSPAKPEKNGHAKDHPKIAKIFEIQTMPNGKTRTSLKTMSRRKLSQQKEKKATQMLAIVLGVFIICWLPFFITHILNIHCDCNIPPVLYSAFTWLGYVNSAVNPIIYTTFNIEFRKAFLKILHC

D(3) dopamine receptor = D(3) dopamine receptor (Rattus norvegicus, UniProt P19020); test: Inhibitory activity against [125I]- NCQ298 binding to dopamine receptor D3 in Sf 9 cells; assay type: cell-based
D(3) dopamine receptor, sequence (P19020 whole entry): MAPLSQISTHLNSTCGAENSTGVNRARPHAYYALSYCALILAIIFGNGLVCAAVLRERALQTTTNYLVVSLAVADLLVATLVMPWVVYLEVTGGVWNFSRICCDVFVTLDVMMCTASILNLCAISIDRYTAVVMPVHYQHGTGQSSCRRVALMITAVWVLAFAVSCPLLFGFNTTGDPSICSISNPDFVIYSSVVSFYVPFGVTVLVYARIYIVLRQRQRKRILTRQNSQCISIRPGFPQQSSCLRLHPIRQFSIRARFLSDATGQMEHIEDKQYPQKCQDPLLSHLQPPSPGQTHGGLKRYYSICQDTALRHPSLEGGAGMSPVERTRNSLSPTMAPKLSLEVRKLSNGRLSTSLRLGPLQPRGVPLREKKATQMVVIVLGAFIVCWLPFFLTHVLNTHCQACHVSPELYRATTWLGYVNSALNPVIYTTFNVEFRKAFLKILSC

Rattus norvegicus = organism: Rattus norvegicus; test: Inhibitory activity against (125I)-(R,S)-trans-8-OH-PIPAT binding to the rat hippocampal homogenate; assay type: functional, Hippocampus

| SMILES | Ki [1] [nM] | Hill coefficient [2] | further results |
| --- | --- | --- | --- |
| COc1cccc(OC)c1OCCNCC1COc2ccccc2O1 (configuration not stated) | 2.68 | – | – |
| CCCN(C/C=C/I)C1CCc2ccc(O)cc2C1 (racemic) | – | 0.9 | – |
| CCCN(C/C=C/I)C1CCc2cccc(O)c2C1 (racemic) | 0.3 | 0.85 | Ki (D(2) dopamine receptor): 1070 nM; Ki (D(3) dopamine receptor): 125 nM |
| CCCN(CCC)C1CCc2ccc(O)cc2C1 (racemic) | 72.7 | 0.82 | – |
| CCCN(CCC)C1CCc2cccc(O)c2C1 (racemic) [8-OH-DPAT] | – | 0.83 | Ki (D(3) dopamine receptor): 251 nM; Ki (Rattus norvegicus): 0.91 nM |
| CC(C)NCC(O)COc1cccc2ccccc12 (racemic) [PROPRANOLOL] | – | 0.99 | – |
| NCCc1ccc(O)c(O)c1 [DOPAMINE] | > 10000 | – | – |
| O=C(c1ccc(F)cc1)C1CCN(CCn2c(=O)[nH]c3ccccc3c2=O)CC1 [KETANSERIN] | – | 1.04 | – |
| NCCc1c[nH]c2ccc(O)cc12 [SEROTONIN] | – | 1.04 | – |
| O=C(CCCN1CCC2(CC1)C(=O)NCN2c1ccccc1)c1ccc(F)cc1 [SPIPERONE] | 602 | 0.86 | – |
